Experimental findings from PMC12206033, “Selective inhibition of TRPV3 channel by natural rosmarinic acid and its analogs for alleviation of skin lesions through downregulation of NF-κB pathway” (The Journal of Biological Chemistry, 2025) are described below.

Experiment [1] relates to TRPV3, IL-6, TNF-α, and p-P65 protein expressions. Put plainly: Western blot of TRPV3 and NF-κB pathway proteins in mouse ear tissues. It is filed as in vivo. The conditions noted are these: topical ROSA 0.1, 1 and 10 mM; mouse ear tissues; day 5. Here is the method:
Skin sensitizer Car was dissolved in saline solution containing 30% ethanol. The dorsal skin or ear of mice was swabbed with 3% Car for four consecutive days. To investigate the effects of ROSA, it was diluted to concentration of 0.1/1/10 mM with saline and topically applied on the ear and dorsal skin once a day for 4 days. The control group only received swabs with the solvent.
Skin or ear skin tissues were homogenized in radioimmunoprecipitation assay buffer (Thermo Fisher Scientific) containing protease inhibitors at a ratio of 100:1 per 10 mg tissue and centrifuged at 15,000 rpm for 15 min. The protein concentration was quantified using a bicinchoninic acid kit (Thermo Fisher Scientific), followed by SDS-PAGE for Western blot analysis. Protein transfer was performed at 150 mA for 90 min, and the transferred membranes (Millipore) were incubated with primary antibodies (TRPV3 antibody, 1:1000, TNF-α antibody, 1:1000, IL-6 antibody, 1:2500, P65 antibody, 1:1000 and p-P65 antibody, 1:1000) in 5% skim milk (Becton, Dickinson and Company). […] Images were quantified using the Image Lab software (https://www.bio-rad.com/zh-cn/product/image-lab-software?ID=KRE6P5E8Z).

In the next experiment the target is T1, hTRPV3 (Homo sapiens, UniProt Q8NET8).
T1 construct: expressed in transfected cells; host or cells: HEK293T
T1 sequence (Q8NET8 1-790): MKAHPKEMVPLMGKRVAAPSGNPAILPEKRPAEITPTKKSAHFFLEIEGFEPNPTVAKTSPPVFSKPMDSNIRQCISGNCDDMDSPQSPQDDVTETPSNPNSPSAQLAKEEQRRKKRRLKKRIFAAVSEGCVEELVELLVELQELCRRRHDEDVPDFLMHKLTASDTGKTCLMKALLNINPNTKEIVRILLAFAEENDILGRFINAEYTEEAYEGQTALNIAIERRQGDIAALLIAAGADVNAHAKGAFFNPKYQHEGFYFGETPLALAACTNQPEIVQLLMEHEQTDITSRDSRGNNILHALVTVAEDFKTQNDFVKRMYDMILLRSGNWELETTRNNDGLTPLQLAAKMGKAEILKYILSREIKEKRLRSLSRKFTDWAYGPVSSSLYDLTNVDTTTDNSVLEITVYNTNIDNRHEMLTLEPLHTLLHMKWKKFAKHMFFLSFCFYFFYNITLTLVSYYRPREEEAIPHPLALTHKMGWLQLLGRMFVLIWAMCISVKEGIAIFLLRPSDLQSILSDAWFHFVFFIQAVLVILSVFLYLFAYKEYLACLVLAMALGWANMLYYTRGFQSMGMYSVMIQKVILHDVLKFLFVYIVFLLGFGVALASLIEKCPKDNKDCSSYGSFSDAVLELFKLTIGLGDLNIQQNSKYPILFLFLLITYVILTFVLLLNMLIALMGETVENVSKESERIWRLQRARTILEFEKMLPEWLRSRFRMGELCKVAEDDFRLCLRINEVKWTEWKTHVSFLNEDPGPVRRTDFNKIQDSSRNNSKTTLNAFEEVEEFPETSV
Put plainly: single-channel inside-out patch recordings of hTRPV3 in HEK293T cells. It counts as cell-based. As to conditions: for single-channel open probability: n = 5. The procedure:
HEK293T cell line was obtained from the Cell Resource Center, Peking Union Medical College. HEK293T cells were maintained in Dulbecco’s modified Eagle’s medium (DMEM, Gibco) supplemented with 10% fetal bovine serum at 37 °C with 5% CO2. HEK293T cells were seeded onto glass coverslips 1 day in advance and transiently transfected with […] complementary deoxyribonucleic acids of human TRPV3 (hTRPV3, accession number NM_145068.4), hTRPV1 (accession number NM_080704.3), mTRPV2 (accession number NM_011706.2), hTRPV4 (accession number NM_021625.5), hTRPA1 (accession number NM_007332.3), and hTRPM8 (accession number NM_024080.5) through Lipofectamine 2000 (Invitrogen) following the manufacture’s protocol. The next day, determine the plasmid transfection status by observing green fluorescence based on expression of enhanced GFP as an indicator. […] As for the relative fluorescence intensity, we convert the image to 8 bit grayscale using ImageJ (Https://imagej.net/software/fiji/downloads) and set an appropriate threshold value to reduce background noise and enhance the image contrast.
All patch-clamp recordings were conducted 16 to 24 h after transfection using an EPC10 amplifier powered by PatchMaster software (HEKA) (https://www.heka.com/downloads/downloads_main.html#down_patchmaster) at room temperature. The borosilicate glass pipettes were pulled using a DMZ universal electrode puller (Zeitz-Instruments GmbH) to achieve the resistances of three to 5 MΩ (for whole-cell recordings) or five to 9 MΩ (for inside-out patch recordings). Currents were recorded at a potential ramp from −100 mV to +100 mV for 1000 ms with 1000-ms intervals (for whole-cell recordings) or a persistent potential of −60 mV (inside-out patch recordings). Both pipette solution and bath solution contained (in mM): 130 NaCl, 3 Hepes, and 0.2 EDTA (pH = 7.2–7.4). All recording data were analyzed using Igor Pro (Wave-metrics) (https://www.wavemetrics.com/order/order_igordownloads.htm) and Origin 8.6 (Origin Lab) (https://www.originlab.com/doc/zh/Quick-Help/Download-Installer).

On to `O=C(/C=C/c1ccc(O)c(O)c1)O[C@H](Cc1ccc(O)c(O)c1)C(=O)O` [ROSA, rosmarinic acid], for which the “protein expressions of TRPV3, IL-6, TNF-α, and p-P65 induced by Car” value in experiment [1] was “downregulated the upregulation”. Moreover, the single-channel open probability was found to be 0.13 ± 0.05 on hTRPV3 (ROSA 100 μM co-perfused with 2-APB 50 μM) and 0.28 ± 0.06 on hTRPV3 (ROSA 100 μM co-perfused with Car 300 μM). Also, the “effect on channel unitary conductance” value on hTRPV3 (ROSA 100 μM with 2-APB 50 μM or Car 300 μM) is on record as “without altering the channel unitary conductance”.
